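A five-concentration, 48-hour dose response in 96-well plates underlies each endpoint, interpolated linearly between surrounding concentrations. GI50: concentration for 50% inhibition of growth.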 The source made the active and inactive calls. Rule as the data show it: active = GI50 up to about 1.1 µM and inactive = higher.

The results in this text go back to ChEMBL document CHEMBL1201862, “PubChem BioAssay data set” (2004).

Among the test systems are A549; CAKI-1; CCRF-CEM; COLO 205; EKVX; HCT-116; HL-60; IGROV-1; M14; NCI-H226; NCI-H460; OVCAR-4; OVCAR-5; SK-MEL-28; SK-MEL-5; SK-OV-3; SNB-19; SR; U-251; UACC-62.
Common to all, as to experiment: inhibition of tumour cell growth, NCI panel, 48 h

In the case of `O=C(O)c1cc2ccc(Cl)cc2c(O)c1C1=CCCCC1`, the GI50 is 39.9 µM (inactive) in the assay with A549; 33.2 µM (inactive) with CAKI-1; 41.7 µM (inactive) with CCRF-CEM; 67.8 µM (inactive) in the assay with COLO 205; 43.4 µM (inactive) in the assay on EKVX; 37.1 µM (inactive) in the assay with HCT-116. Further, the GI50 is 30.8 µM (inactive) with HL-60; 50 µM (inactive) in the assay on IGROV-1; 43.7 µM (inactive) with M14; 26.7 µM (inactive) in the assay on NCI-H226; 35.8 µM (inactive) in the assay with NCI-H460; 23.2 µM (inactive) in the assay on OVCAR-4. For the same compound, the GI50 is 54.1 µM (inactive) in the assay with OVCAR-5; 66.5 µM (inactive) with SK-MEL-28; 30.3 µM (inactive) with SK-MEL-5; 42.7 µM (inactive) in the assay on SK-OV-3; 39 µM (inactive) in the assay with SNB-19; 57.4 µM (inactive) with SR. In addition, the GI50 was 36.9 µM (inactive) in the assay on U-251 and 24.5 µM (inactive) in the assay with UACC-62.
`O=C(Cc1ccccc1)C(c1ccccc1)S(=O)(=O)c1ccccc1` (stereo not given): the GI50 was 59.4 µM (inactive) in the assay on A549; > 100 µM (inactive) in the assay on CAKI-1; > 100 µM (inactive) with CCRF-CEM; > 100 µM (inactive) with COLO 205; > 100 µM (inactive) with EKVX; 59.3 µM (inactive) with HCT-116. The GI50 in the assay on HL-60 was > 100 µM (inactive); in the assay with IGROV-1 it was > 100 µM (inactive); with M14, > 100 µM (inactive); in the assay on NCI-H226 it was > 100 µM (inactive); in the assay with NCI-H460 it was > 100 µM (inactive); in the assay on OVCAR-4, 73.3 µM (inactive). In addition, the GI50 is > 100 µM (inactive) in the assay with OVCAR-5; > 100 µM (inactive) with SK-MEL-28; > 100 µM (inactive) in the assay on SK-MEL-5; > 100 µM (inactive) in the assay with SK-OV-3; > 100 µM (inactive) in the assay with SNB-19; 69.3 µM (inactive) in the assay on SR. In addition, the GI50 in the assay with U-251 is > 100 µM (inactive); with UACC-62, 75.2 µM (inactive).
As to `COc1ccc(NC(=O)CC(=O)N/N=C/c2ccc(N(CCC#N)S(=O)(=O)c3ccccc3)cc2)cc1`, the GI50 in the assay with A549, in the assay on CAKI-1, with CCRF-CEM, in the assay on COLO 205, in the assay with EKVX and in the assay with HCT-116 was > 100 µM (inactive) in each case. Further, the GI50 in the assay on HL-60, in the assay with IGROV-1, in the assay with M14, in the assay on NCI-H226, in the assay on NCI-H460 and in the assay on OVCAR-4 was > 100 µM (inactive) in each case. Besides, the GI50 in the assay on OVCAR-5, in the assay on SK-MEL-28, in the assay with SK-MEL-5, in the assay with SK-OV-3, with SNB-19 and in the assay with SR was > 100 µM (inactive) throughout. The GI50 with U-251 and in the assay on UACC-62 was > 100 µM (inactive) in each case.
`CC(=O)OCC(=O)O[C@@H]1[C@H]2[C@@H](OC(=O)c3ccccc3)[C@@H](C)C[C@]2(O)[C@H](OC(C)=O)[C@@]2(C)C(OC(C)=O)[C@]1(OC(C)=O)C[C@H]1C(=O)C(C)(C)C[C@@H]12` (stereo not given in full): the GI50 with A549 is 9.98 µM (inactive); with CAKI-1 it was 37.6 µM (inactive); with CCRF-CEM, > 11.2 µM (inactive); in the assay with COLO 205, 12.8 µM (inactive); with EKVX, > 42 µM (inactive); in the assay on HCT-116, > 50 µM (inactive). Besides, the GI50 with HL-60 was 6.46 µM (inactive); in the assay on IGROV-1, > 50 µM (inactive); with M14, > 50 µM (inactive); in the assay with NCI-H226 it was > 50 µM (inactive); in the assay with NCI-H460 it was 4.12 µM (inactive); in the assay on OVCAR-4, > 34.2 µM (inactive). Further, the GI50 in the assay with OVCAR-5 was > 50 µM (inactive); with SK-MEL-28 it was > 50 µM (inactive); in the assay on SK-MEL-5, 31 µM (inactive); in the assay on SK-OV-3, > 50 µM (inactive); in the assay on SNB-19, > 50 µM (inactive); in the assay on SR it was > 50 µM (inactive). In addition, the GI50 with U-251 and in the assay on UACC-62 was > 50 µM (inactive) in each case.
As to `COc1ccccc1NC(=O)C(C#N)=C(SC)SC`, the GI50 in the assay with A549 was > 100 µM (inactive); in the assay on CAKI-1 it was 61 µM (inactive); with CCRF-CEM, 89.5 µM (inactive); in the assay with COLO 205 it was > 100 µM (inactive); with EKVX it was > 100 µM (inactive); with HCT-116, > 100 µM (inactive). In addition, the GI50 in the assay on HL-60 is > 100 µM (inactive); with IGROV-1, 51.9 µM (inactive); with M14, > 100 µM (inactive); in the assay with NCI-H226, > 100 µM (inactive); with NCI-H460, 94.2 µM (inactive); in the assay with OVCAR-4 it was > 100 µM (inactive). The GI50 with OVCAR-5, in the assay with SK-MEL-28, in the assay on SK-MEL-5, with SK-OV-3, with SNB-19 and in the assay on SR was > 100 µM (inactive) each time. The GI50 in the assay on U-251 and in the assay with UACC-62 was > 100 µM (inactive) each time.
On to `O=C(CCc1cccc(O)c1)NCCc1cccc(OCc2ccccc2)c1`, for which the GI50 in the assay on A549 is 28.1 µM (inactive); in the assay with CAKI-1 it was 26.9 µM (inactive); with CCRF-CEM, 12.6 µM (inactive); in the assay on COLO 205, 19.7 µM (inactive); in the assay on EKVX it was 21.5 µM (inactive); with HCT-116, 16.7 µM (inactive). Moreover, the GI50 was 28.4 µM (inactive) in the assay with HL-60; 8.93 µM (inactive) in the assay with IGROV-1; 16.2 µM (inactive) in the assay with M14; 11.4 µM (inactive) in the assay with NCI-H226; 15.6 µM (inactive) with NCI-H460; 20.1 µM (inactive) with OVCAR-4. In addition, the GI50 with OVCAR-5 was 24.7 µM (inactive); in the assay on SK-MEL-28 it was 16.1 µM (inactive); in the assay on SK-MEL-5, 16 µM (inactive); with SK-OV-3, 23.6 µM (inactive); in the assay with SNB-19, 22.8 µM (inactive); with SR it was 25 µM (inactive). In addition, the values for the GI50 in the assay on U-251 and in the assay on UACC-62 were 16.5 µM (inactive) and 14.3 µM (inactive), respectively.
As for `CC[C@@]1(O)C[C@H](OC2CC(N(C)C)C(OC3CC(O)C(OC4CCC(=O)C(C)O4)C(C)O3)C(C)O2)c2c(cc3c(c2O)C(=O)c2c(O)ccc(O)c2C3=O)[C@H]1C(=O)OC` (stereo not given in full), the GI50 in the assay on A549 was 6.7e-05 µM (active); in the assay on CAKI-1, < 1e-05 µM (active); in the assay with CCRF-CEM, 8.38e-05 µM (active); in the assay on COLO 205, 7.55e-05 µM (active); in the assay on EKVX it was 0.00492 µM (active); in the assay on HCT-116 it was 2.32e-05 µM (active). The GI50 with HL-60 is 6.56e-05 µM (active); with IGROV-1, 5.35e-05 µM (active); in the assay with M14, 0.000438 µM (active); with NCI-H226, 5.83e-05 µM (active); in the assay with NCI-H460, 2.33e-05 µM (active); in the assay with OVCAR-4, 1.06e-05 µM (active). Moreover, the GI50 in the assay with OVCAR-5 is 0.000365 µM (active); in the assay on SK-MEL-28 it was 0.000343 µM (active); in the assay on SK-MEL-5, 0.000535 µM (active); in the assay with SK-OV-3 it was 0.000404 µM (active); in the assay on SNB-19, 5.51e-05 µM (active); in the assay on SR it was 0.000101 µM (active). In addition, the results for the GI50 in the assay with U-251 and with UACC-62 were 6.35e-05 µM (active) and 0.00341 µM (active), respectively.
